Measurements as given in patent US20230069886A1, “AROMATIC SULPHONAMIDES DERIVATIVES THAT INHIBITS PDI A3, THEIR SYNTHESIS AND USE” (Uniwersytet Jagiellonski, priority 2020, published 2023).
Converted amounts (≈) assume the structure as drawn.

How the values were obtained:
[1] = tested on: MCF-7; assay: MTT antiproliferative assay, 72 h, with or without estradiol, MCF-7; format: cell-based, human
Method: Anticancer activity of selected compounds of invention, PDI A3-inhibitors has been also tested in vitro in antiproliferative assay in normoxic and hypoxic conditions as well in estrogen-stimulated cancer cells. In the experiment, cells were seeded on 96-well plates (Sarstedt, Germany) in appropriate culture medium at a density of 10^5 cells/mL 24 h before adding the tested compounds. Cells were treated with each compound in four concentrations in the range 0.1-100 μg/mL. […] After 72 h of compound treatment at 37° C., 5% CO2 humid atmosphere and in wo different oxygen level conditions: 21%—normal and <1%—hypoxia. In some experiments the MDA-MB-231 and MCF-7 cells were seeded with or without 200 nM estradiol and after 24 h the tested compounds were added. A previously described sulforhodamine B antiproliferative assay was used with minor modifications (Skehan P et al., 1990). Briefly, cells were fixed with 50 μL/well of 50% (w/v) trichloroacetic acid (Avantor Performance Materials, Gliwice, Poland). After 1 h incubation, plates were washed several times with tap water and 50 μL of 0.4% (w/v) solution of sulforhodamine B (Sigma-Aldrich, Germany) in 1% (v/v) acetic acid (Avantor Performance Materials, Gliwice, Poland) was added to each well. After 30 min incubation at room temperature, unbound dye was washed out with 1% (v/v) acetic acid, whereas bound dye was solubilized with 10 mM unbuffered TRIS (Avantor Performance Materials, Gliwice, Poland) solution. The entire procedure was performed using a BioTek EL-406 washing station (BioTek Instruments, USA). After additional 30 min, absorbance was read using a Biotek Hybrid H4 reader (BioTek Instruments, USA) at 540 nm wavelength. MTT assay was used alternatively for HL-60 cell line and in the experiment in which estrogens are added (specified in the table legend). Absorbance was measured using a Biotek Hybrid H4 reader at 570 nm wavelength for MTT assay.
Compounds at each concentration were tested in triplicate in a single experiment and each experiment was repeated at least three times independently. Results are presented as mean IC50±SD.

[2] = tested on: human platelets; assay: Light transmission aggregometry of collagen-stimulated human platelet-rich plasma; format: cell-based; settings: human PRP, FIG. 2, 3
Method: Anti-platelet activity of compounds of invention was assessed using light transmission aggregometry assay of human platelet-rich plasma (PRP). Venous blood was obtained from male volunteers at the University Hospital Blood Bank Centre. Volunteer donors had not taken any medicines for the preceding two weeks. Blood was collected into vials containing sodium citrate (3.2%, 9:1 v/v) as an anti-coagulant agent. To obtain platelet rich plasma (PRP), blood was centrifuged at 260×g for 15 min. The platelet […] plasma fraction (used as a blank sample) was obtained by centrifugation of the remaining blood for 10 min at 2600×g. Aggregation of blood platelets was assessed in PRP with a dual channel Chronolog aggregometer (CHRONO-LOG) using a method previously described by Born^35. PRP (500 μl) was equilibrated for 2 min at 37° C. with a continuous stirring at 800 rpm and then stimulated with collagen to cause aggregation. At the beginning of each experiment, concentrations of collagen that induced sub-maximum aggregation response were determined. These concentrations were in the range of […], respectively. All the tested compounds were added 2 min prior to stimulation of platelets with collagen. Transmittance was read 6 min after stimulation of platelets with an agonist. […]

[3] = tested on: arterial thrombosis; assay: In vivo models of arterial thrombosis; set-up: species or system rat or mice; settings: FIG. 5
Method: To confirm antithrombotic activity of compounds of invention, inhibitors of PDIA3, pharmacological activity of selected compounds was tested in vivo in the rat or mice model of arterial thrombosis. Wistar rats were anaesthetized with pentobarbital (40 mg/kg, i.p.) and placed in a supine position on a heated (37° C.) operating table. Arterial thrombosis was induced by electrical stimulation of the right common carotid artery, as previously described (Kramkowski et al., 2012). Briefly, the anode, a stainless steel L-shaped wire, was inserted under the artery and connected to a constant current generator. The cathode was attached subcutaneously to the hind limb. The artery was stimulated (1 mA) for 10 min. Fifty-five minutes after the beginning of stimulation, the segment of the common carotid artery containing the formed thrombus was dissected and opened lengthwise, and the thrombus was completely removed and air-dried at room temperature for 24 h. Thrombus was then weighed in a blinded manner. Antithrombotic effects of compounds of invention in mice was analyzed using intravital fluorescence confocal microscopy as described previously (Hayashi T et al., 2008). […] Changes in fluorescence intensity were measured as described previously (Hayashi T et al., 2008, Kramkowski et al., 2002)

**Q.** Which “Lower sensitivity after treatment with estradiol in MCF-7” value ([1]; estradiol (200 nM), Table 4) does the source give for `COC(=O)C1CN1S(=O)(=O)c1ccc2c(C=O)c(N(C)C)ccc2c1` (centres unmarked) [Compound C-3390, Methyl 1-[[6-(dimethylamino)-5-formyl-2-naphthyl]sulfonyl]aziridine-2-calboxylate] here?
**A.** not observed

**Q.** What about the “IC50 [μg/ml] MCF-7 normal” value ([1]; not pretreated with estradiol, 72 hours exposition, MTT) of the same molecule?
**A.** 3.2 ± 0.3 µg/mL (≈ 8.83 µM)

**Q.** And the “IC50 [μg/ml] MCF-7 +estradiol” value ([1]; pretreated with 200 nM estradiol, 72 hours exposition, MTT)?
**A.** 3.4 ± 0.3 µg/mL (≈ 9.38 µM)

**Q.** And the “Inhibition of platelet aggregation” value [2]?
**A.** lowest EC50

**Q.** What about the “Anti-thrombotic effects in vivo” value [3] of the same molecule?
**A.** anti-thrombotic effects
